The subject of data set [1] is acute nitroglycerin (NTG) migraine model in rats. In words: Acute nitroglycerin (NTG) rat migraine model, periorbital von Frey threshold. The conditions noted are these: male Sprague Dawley rats, 10 mg/kg NTG i.p., 30 mg/kg test compound, 90 min; 50% periorbital threshold after compound / baseline x 100. It is filed as in vivo. The method, then:
An acute nitroglycerin (NTG) model was used to assess migraine efficacy in rats (for a review see: Sureda-Gibert, P, Neurobiol Pain. 2022 August-December; 12: 100105). Briefly, male Sprague Dawley rats, 8-weeks old (Charles River Laboratories), were pair-housed in a 12-h light cycle room upon facility arrival and left to acclimate for a minimum of 72 h. Animals were provided standard rodent chow (PicoLab Rodent Diet, 5053) and water ad libitum. Following the acclimation period, rats underwent a single behavioral testing apparatus acclimation. Rats were left to freely move and habituate for a minimum of 20 min. The testing apparatus used was a Multiple Configuration Animal Enclosure (Ugo Basile, 37000-007) placed on a self-standing table with a mesh-perforated bottom.
Periorbital threshold was measured using the up-down method (Chaplan, S. R., et al., J Neurosci Methods, 1994 July; 53(1):55-63), in which von Frey filaments (Ugo Basile, 37450-275) of increasing forces (0.4-15 g) were applied to the periorbital region until an application of a filament evoked a response, typically indicated by a rapid withdrawal response or paw swipe to the periorbital region. Once a response was observed, four more readings were obtained following the first change of direction to determine the withdrawal threshold close to 50%. The 50% threshold was then calculated using the following formula: 50% threshold (g)=10^(X+kd)/10^4, where X=the value, in log units, of the final von Frey filament, k=tabular value for the response pattern, and d=the average increment, in log units, between von Frey filaments.
Following acclimation, a baseline assessment was performed, and rats were then randomized into balanced treatment groups using baseline periorbital threshold measurements. On the day of the experiment, rats (n=12/group) were weighed and administered 10 mg/kg NTG (2 mg/mL in 0.9% saline; Henry Schein, NDC-0517-4810-25) by intraperitoneal injection, immediately followed by their assigned compound treatment of either vehicle (0.25% methyl cellulose, 5% Tween 80, 0.02% sodium dodecyl sulfate (SDS) in Hanks' Buffered Salt Solution with Ca^2+ and Mg^2+), 10 mg/kg sumatriptan as a positive control (2 mg/mL in vehicle; Ambeed, A260899-1g) or 30 mg/kg test compound (10 mg/mL in vehicle).
Approximately 70 min post dosing, animals were placed in the behavioral testing apparatus and allowed to habituate to individual enclosures for a minimum of 20 min prior to von Frey assessment. Von Frey measurements were then recorded at 90 and 120. Upon final measurement, rats were immediately euthanized via CO2 asphyxiation followed by exsanguination. Blood was collected in lithium-heparin serum-separating tubes (BD, 365985) and processed for serum collection. Serum samples were then stored at −80° C.
Migraine efficacy (%) was calculated by dividing the 50% threshold (g) following administration of test compound by the baseline 50% threshold (g) and then multiplying by 100.

The target of another data set is T1, human NK3 (Homo sapiens, UniProt P29371).
T1 sequence (P29371 1-465): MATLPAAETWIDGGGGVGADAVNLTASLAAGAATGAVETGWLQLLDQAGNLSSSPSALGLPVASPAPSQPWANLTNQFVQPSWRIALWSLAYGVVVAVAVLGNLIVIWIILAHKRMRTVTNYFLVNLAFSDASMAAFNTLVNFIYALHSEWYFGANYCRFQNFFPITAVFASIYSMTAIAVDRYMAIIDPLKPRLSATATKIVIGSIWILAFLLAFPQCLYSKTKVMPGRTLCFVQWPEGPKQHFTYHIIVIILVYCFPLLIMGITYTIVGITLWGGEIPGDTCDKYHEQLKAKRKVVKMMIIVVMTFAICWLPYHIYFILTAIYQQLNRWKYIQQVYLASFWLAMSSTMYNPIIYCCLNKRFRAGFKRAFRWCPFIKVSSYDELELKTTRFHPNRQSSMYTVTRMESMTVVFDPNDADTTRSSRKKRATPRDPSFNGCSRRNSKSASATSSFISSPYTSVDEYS
In words: FLIPR calcium assay in antagonist mode (NKB EC70 challenge). It is filed as cell-based. As to conditions: stable cell line expressing human recombinant NK3; antagonist mode vs EC70 of NKB agonist. The essentials:
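Recombinant human NK3 stable cells loaded with Calcium 6 dye were given compound, read for 10 min, then challenged with NKB at its predetermined EC70 and read 10 min by FLIPR. The second peak minus baseline was normalized to 10 μM and 0 μM antagonist controls, and fitted for IC50 and efficacy.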

The target of a further data set is T2, P-glycoprotein (P-gp) (Homo sapiens, UniProt P08183).
T2 construct: expressed in transfected cells; host or cells: MDR1-MDCK II
The data set can be described thus: P-gp substrate assessment in MDR1-MDCK II cells. In kind it is in vitro ADME. The conditions noted are these: dog, MDCK-MDR1, pH 7.4.

T2 sequence (P08183 whole entry): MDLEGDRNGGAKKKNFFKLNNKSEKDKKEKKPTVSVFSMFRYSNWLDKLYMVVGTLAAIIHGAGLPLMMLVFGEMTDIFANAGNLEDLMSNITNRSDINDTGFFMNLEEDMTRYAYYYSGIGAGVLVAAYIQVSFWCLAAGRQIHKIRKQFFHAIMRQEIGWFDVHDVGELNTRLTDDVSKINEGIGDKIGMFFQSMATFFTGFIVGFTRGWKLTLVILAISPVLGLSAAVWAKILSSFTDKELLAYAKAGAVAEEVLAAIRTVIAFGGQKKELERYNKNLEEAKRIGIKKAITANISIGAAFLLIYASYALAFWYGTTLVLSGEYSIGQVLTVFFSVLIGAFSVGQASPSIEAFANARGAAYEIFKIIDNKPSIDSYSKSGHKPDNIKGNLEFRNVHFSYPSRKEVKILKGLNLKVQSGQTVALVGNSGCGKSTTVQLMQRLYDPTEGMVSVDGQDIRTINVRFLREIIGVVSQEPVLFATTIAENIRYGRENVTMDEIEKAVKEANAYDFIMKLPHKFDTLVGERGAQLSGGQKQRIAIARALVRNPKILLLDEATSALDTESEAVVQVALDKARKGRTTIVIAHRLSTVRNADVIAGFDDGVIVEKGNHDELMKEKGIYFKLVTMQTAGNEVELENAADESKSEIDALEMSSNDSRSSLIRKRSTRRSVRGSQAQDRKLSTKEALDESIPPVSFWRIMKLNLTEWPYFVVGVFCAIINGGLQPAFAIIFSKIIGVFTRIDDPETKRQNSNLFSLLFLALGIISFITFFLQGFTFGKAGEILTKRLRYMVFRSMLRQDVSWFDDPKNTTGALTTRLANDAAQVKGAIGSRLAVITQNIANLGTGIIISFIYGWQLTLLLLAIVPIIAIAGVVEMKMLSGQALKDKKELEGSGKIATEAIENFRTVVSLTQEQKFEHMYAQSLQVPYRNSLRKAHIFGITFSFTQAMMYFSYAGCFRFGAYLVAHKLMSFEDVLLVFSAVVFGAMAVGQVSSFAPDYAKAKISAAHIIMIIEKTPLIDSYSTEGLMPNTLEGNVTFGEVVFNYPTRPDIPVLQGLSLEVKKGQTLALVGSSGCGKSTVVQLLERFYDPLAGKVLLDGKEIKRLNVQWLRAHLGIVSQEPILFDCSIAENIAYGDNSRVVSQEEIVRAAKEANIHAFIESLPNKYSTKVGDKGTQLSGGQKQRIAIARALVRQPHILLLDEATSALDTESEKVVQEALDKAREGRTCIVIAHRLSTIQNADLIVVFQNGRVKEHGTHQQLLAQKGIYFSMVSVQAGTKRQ
Description for P-glycoprotein (P-gp): MDR1-MDCK II from passage 5-35 were used for P-gp substrate assessment studies. Briefly, test compounds were diluted with transport buffer (HBSS with 10 mM HEPES, pH 7.4) from stock solution to a concentration of 2.00 μM (DMSO<1%) and applied to the apical or basolateral side of the cell monolayer. […] Compounds were quantified by LC/MS/MS analysis based on the peak area ratio of analyte/internal standard. The efflux ratio of each compound was determined according to the following equation: Efflux Ratio=Papp (BA)/Papp (AB).

On to `Cn1cc(-c2cccc(F)c2-c2nc3cc(C(=O)N[C@]45CC[C@](CO)(C4)OC5)ccn3c2Cl)c(F)n1` (single isomer, unassigned; second eluting) [Compound 920, 3-chloro-2-(2-fluoro-6-(3-fluoro-1-methyl-1H-pyrazol-4-yl)phenyl)-N-(1-(hydroxymethyl)-2-oxabicyclo[2.2.1]heptan-4-yl)imidazo[1,2-a]pyridine-7-carboxamide, second eluting enantiomer], for which the “Efficacy (%)” value in data set [1] turned out to be 100%. Moreover, on human NK3, the IC50 stood at 1.06 nM. For the compound `Cc1nn(C)cc1-c1cc(F)cc(F)c1-c1nc2cc(C(=O)N[C@@H]3CO[C@H]4[C@@H]3OC[C@H]4O)ccn2c1Cl` [Compound 787, 3-chloro-2-(2-(1,3-dimethyl-1H-pyrazol-4-yl)-4,6-difluorophenyl)-N-((3R,3aR,6R,6aR)-6-hydroxyhexahydrofuro[3,2-b]furan-3-yl)imidazo[1,2-a]pyridine-7-carboxamide], the “Efficacy (%)” value in data set [1] turned out to be 70%. In addition, the half-maximal inhibitory concentration (IC50) at human NK3 was 1.51 nM. On to `Cc1nn(C)cc1-c1cc(F)ccc1-c1nc2cc(C(=O)N[C@@H]3CO[C@H]4[C@@H]3OC[C@H]4O)ccn2c1Cl` [Compound 16, 3-chloro-2-(2-(1,3-dimethyl-1H-pyrazol-4-yl)-4-fluorophenyl)-N-((3R,3aR,6R,6aR)-6-hydroxyhexahydrofuro[3,2-b]furan-3-yl)imidazo[1,2-a]pyridine-7-carboxamide], for which the “Efficacy (%)” value in data set [1] was 82%. On to `Cn1cc(-c2cccc(F)c2-c2nc3cc(C(=O)NC45COC(C)(C4)C5)ccn3c2C#N)c(F)n1` [Compound 845, 3-cyano-2-(2-fluoro-6-(3-fluoro-1-methyl-1H-pyrazol-4-yl)phenyl)-N-(1-methyl-2-oxabicyclo[2.1.1]hexan-4-yl)imidazo[1,2-a]pyridine-7-carboxamide], for which the “Efficacy (%)” value in data set [1] stood at 92%. Further, the IC50 at human NK3 was determined as 2.61 nM. For the compound `Cc1nn(C)cc1-c1ccccc1-c1nc2cc(C(=O)N[C@@H]3CO[C@H]4[C@@H]3OC[C@H]4O)ccn2c1Cl` [Compound 7, 3-chloro-2-(2-(1,3-dimethyl-1H-pyrazol-4-yl)phenyl)-N-((3R,3aR,6R,6aR)-6-hydroxyhexahydrofuro[3,2-b]furan-3-yl)imidazo[1,2-a]pyridine-7-carboxamide], in data set [1], the “Efficacy (%)” value is 81%. In addition, the half-maximal inhibitory concentration (IC50) on human NK3 amounted to 1.21 nM. The efflux ratio at 150 min, 2 μM on P-glycoprotein (P-gp) was found to be 32.7. For the compound `C[C@]1(O)C[C@H](NC(=O)c2ccn3c(Cl)c(-c4ccccc4-c4cnn(C(F)(F)F)c4Cl)nc3c2)C1` [Compound 820], at human NK3, the concentration for half-maximal inhibition (IC50) is 0.77 nM. Take `Cc1c(-c2ccccc2-c2cn(C)nc2C(F)(F)F)nc2cc(C(=O)N[C@@H]3CO[C@H]4[C@@H]3OC[C@H]4O)ccn12` [Compound 783]: the 50% inhibitory concentration (IC50) at human NK3 was 3.21 nM. The same measure, in the same setting: the value for `Cc1nn(C)cc1-c1ccccc1-c1nc2cc(C(=O)N[C@H]3C[C@H](C(C)(C)O)C3)ccn2c1Cl` [Compound 793] was 1.19 nM. Still for that read-out and setting: the value for `Cc1nn(C)cc1-c1ccccc1-c1nc2cc(C(=O)N[C@H]3CO[C@H]4[C@@H]3OC[C@H]4O)ccn2c1Cl` [Compound 768] was 1.96 nM. The same measure, in the same setting: as for `O=C(N[C@@H]1C[C@@H](O)[C@@H](O)C1)c1ccn2c(Cl)c(-c3c(F)cccc3-c3cn(C4CC4)nc3F)nc2c1` [Compound 852], the figure is 0.97 nM; as for `Cc1nn(C)cc1-c1ccc(F)cc1-c1nc2cc(C(=O)N3C[C@@H]4C[C@H]3C(=O)N4)ccn2c1Cl` [Compound 800], 8.07 nM; as for `Cc1nn(C)cc1-c1cccc(F)c1-c1nc2cc(C(=O)N[C@H]3CO[C@H]4[C@@H]3OC[C@@H]4O)ccn2c1C#N` [Compound 775], 4.64 nM. On to `Cn1cc(-c2cccc(F)c2-c2nc3cc(C(=O)N[C@H]4C[C@](O)(CO)C4)ccn3c2Cl)c(F)n1` [Compound 843], for which, on human NK3, the IC50 amounted to 1.08 nM. With `N#CC12CC(NC(=O)c3ccn4c(Cl)c(-c5c(F)cc(F)cc5-c5c[nH]nc5F)nc4c3)(C1)C2` [Compound 789, 3-chloro-N-(3-cyanobicyclo[1.1.1]pentan-1-yl)-2-(2,4-difluoro-6-(3-fluoro-1H-pyrazol-4-yl)phenyl)imidazo[1,2-a]pyridine-7-carboxamide], on human NK3, the IC50 worked out at 1.99 nM. Same read-out and setting: the value for `Cc1nn(C)cc1-c1ccccc1-c1nc2cc(C(=O)N[C@H]3C[C@@](C)(O)C3)ccn2c1Cl` [Compound 460] was 2.55 nM; that for `Cn1ncc(-c2cc(F)cc(F)c2-c2nc3cc(C(=O)N[C@H]4C[C@@](C)(O)C4)ccn3c2Cl)c1F` [Compound 832] was 6.91 nM. For the compound `Cc1c(-c2ccccc2-c2nc3cc(C(=O)N[C@H]4C[C@@](C)(C(=O)O)C4)ccn3c2C)cnn1C` [Compound 295], the IC50 on human NK3 came out at 131 nM. Same read-out and setting: as for `Cc1nn(C)cc1-c1ccccc1-c1nc2cc(C(=O)N[C@H]3C[C@H](CO)C3)ccn2c1Cl` [Compound 641], the figure is 1.04 nM. On to `Cn1cc(-c2cccc(F)c2-c2nc3cc(C(=O)N[C@H]4C[C@@](C)(O)C4)ccn3c2Cl)c(F)n1` [Compound 791, 3-chloro-2-(2-fluoro-6-(3-fluoro-1-methyl-1H-pyrazol-4-yl)phenyl)-N-((1s,3s)-3-hydroxy-3-methylcyclobutyl)imidazo[1,2-a]pyridine-7-carboxamide], for which the 50% inhibitory concentration (IC50) on human NK3 is 0.72 nM. On to `Cn1cc(-c2cccc(F)c2-c2nc3cc(C(=O)N4CCC5(CC4)CC(C)(O)C5)ccn3c2Cl)cn1` [Compound 915, (3-chloro-2-(2-fluoro-6-(1-methyl-1H-pyrazol-4-yl)phenyl)imidazo[1,2-a]pyridin-7-yl)(2-hydroxy-2-methyl-7-azaspiro[3.5]nonan-7-yl)methanone], for which the “Efficacy (%)” value in data set [1] turned out to be 92%. Further, on human NK3, the IC50 was 4.22 nM. In the case of `O=C(NC1CC(CO)(CO)C1)c1ccn2c(Cl)c(-c3c(F)cc(F)cc3-c3cnn(C4CC4)c3F)nc2c1` [Compound 851], on human NK3, the IC50 was determined as 1.93 nM. Still for that read-out and setting: the value for `Cc1nn(C)cc1-c1ccccc1-c1nc2cc(C(=O)N[C@@H]3CO[C@H]4[C@@H]3OC[C@H]4O)ccn2c1C` [Compound 425] was 3.16 nM; that for `C[C@]1(O)C[C@H](NC(=O)c2ccn3c(Cl)c(-c4ccccc4-c4cn(C(F)(F)F)nc4Cl)nc3c2)C1` [Compound 821] was 2.49 nM. On the same count and under the same terms, the value for `Cc1nn(C)cc1-c1ccccc1-c1nc2cc(C(=O)N3C[C@@H]4NCCN[C@@H]4C3)ccn2c1Cl` [Compound 798] was 22.4 nM; that for `Cc1nn(C)cc1-c1cccc(F)c1-c1nc2cc(C(=O)N[C@@H]3CO[C@H]4[C@@H]3OC[C@H]4O)ccn2c1C#N` [Compound 464] was 2.9 nM. For `Cc1nn(C)cc1-c1ccccc1-c1nc2cc(C(=O)N3CC(=O)N[C@H](CO)C3)ccn2c1Cl` [Compound 639], the half-inhibitory concentration (IC50) at human NK3 turned out to be 3.81 nM.

The record behind these values is patent US12281114B2, “NK3 modulators and uses thereof” (Kallyope, Inc., priority 2023, dated 2025).
